Measured values taken from patent US6617423B1, “Superpotent calcitonin analogs having greatly increased hypocalcemic action in vivo” (Fraunhofer-Gesellschaft zur Forderung der Angewandten …, priority 1997, dated 2003).

System: BALB/c mice
Assay: hypocalcemic test in vivo in BALB/c mice
Settings: for biological activity as percentage activity of the hypocalcemic effect maximally achievable in this test: 100% = effect achieved by 2 μg of hCt, BALB/c mice
Procedure: The biological activity of the analogs was determined by means of a hypocalcemic test in vivo in BALB/c mice.
The biological activity is shown as a percentage [%] activity of the hypocalcemic effect maximally achievable in this test, as is achieved by 2 μg of hCt.

[1] = concentration of the peptides 0.01 ng/ml
[2] = concentration of the peptides 0.1 ng/ml
[3] = concentration of the peptides 1 ng/ml
[4] = concentration of the peptides 10 ng/ml
[5] = relative to hCt, mouse in-vivo test

Substance | biological activity as percentage activity of the hypocalcemic effect maximally achievable in this test [1] [%] | biological activity as percentage activity of the hypocalcemic effect maximally achievable in this test [2] [%] | biological activity as percentage activity of the hypocalcemic effect maximally achievable in this test [3] [%] | biological activity as percentage activity of the hypocalcemic effect maximally achievable in this test [4] [%] | activity above the activity of the human calcitonin [5] [fold] | times more active than the original human calcitonin [5] [times] | times more active than calcitonin from salmon (sCt) (relative to sCt, mouse in-vivo test)
cyclo^17,21-[Asp^17,Orn^21]-hCt [Cyclo^17,21-[Asp^17, Om^21]-hCt] | 36.8 | 68.4 | 76.3 | 86.8 | 363 | 360 | three
human calcitonin [hCt, reference compound] |  | 5.8 | 15.8 | 35.2 |  |  | 
calcitonin from salmon [sCt, reference compound] | 21.1 | 51.6 | 63.2 |  |  |  | 
